For data set [1], the system named is Haemaphysalis longicornis. The data set is described as follows: Test Example 11: coated screw tube, nymphal ticks Haemaphysalis longicornis. Type of data set: in vivo. As to conditions: 2 mg compound in 0.2 mL acetone coated on inner wall of screw tube, non-blood-sucking nymphal ticks, after 2 days. Here is the method:
2 mg of each of Compounds of Present Invention 1, 2, 13, 20, 21, 45 to 47, 52 to 55 and 57 and Intermediate Compound M6-13 was weighed in a screw tube (Maruemu No. 5; 27×55 mm), and 0.2 mL of acetone was added thereto and sealed with a cap to dissolve the compound. The screw tube was rotated and inverted to uniformity coat the drug solution onto the whole inner wall of the tube. After removing the cap, the solution was air-dried for about 2 hours, then non-blood-sucking nymphal ticks, Haemaphysalis longicornis (5 ticks/group) were released, and the tube was sealed with the cap. After 2 days, the number of dead ticks was examined, and the mortality was calculated according to the following equation: Mortality (%)=100×(Number of dead ticks/Number of tested ticks).

For the next data set, the system named is Musca domestica. The data set is described as follows: Test Example 8: treated filter paper with sucrose bait, Musca domestica female adults. The class given is in vivo. To be noted: 500 ppm, 0.7 ml on filter paper, after 24 hours. Here is the method: The formulations of Compounds of Present Invention 1 to 3, 9, 13 to 16 and 57 as obtained in Formulation Example 5 were diluted with water, so as to have a concentration of the active ingredient of 500 ppm, to prepare a diluted liquid for test.
A filter paper having a diameter of 5.5 cm was spread on the bottom of a polyethylene cup having the same diameter and 0.7 ml of the diluted liquid for test was added dropwise onto the filter paper, and 30 mg of sucrose was uniformly placed as bait. Into the polyethylene cup, 10 female adults of Musca domestica were released, and the cup was sealed with a lid. After 24 hours, survived and dead number of Musca domestica was examined, and the mortality was calculated.

Each structure is given as a SMILES string.

One may read the mortality as the share of the test organisms that died. Low readings indicate a weak lethal effect, high ones a strong lethal effect. For `CCSc1ccccc1C(=O)N(C)c1ccc(C(F)(F)C(F)(F)F)cn1` [compound 13], the mortality in data set [1] is 100%.
Consider `CC[S+]([O-])c1cc(C(F)(F)F)ccc1C(=O)N(C)c1ccc(C(F)(F)C(F)(F)F)cn1` (stereo not shown) [compound 20], for which the mortality in data set [1] is 100%.
Still for that read-out and setting: then `CC[S+]([O-])c1cc(C(F)(F)F)ccc1C(=O)N(C)c1ccc(SC(F)(F)F)cn1` (stereo not shown) [compound 21], with 100%.
The molecule `CC[S+]([O-])c1ccccc1C(=O)N(C)c1ccc(SC(F)(F)F)cn1` (stereo not shown) [compound 57] returned a mortality in the data set on Musca domestica of 100%.

(Values after patent publication US9392791B2, “Amide compound and use thereof for pest control” (Sumitomo Chemical Company, priority 2012, dated 2016).)
